{"source": "patent US5776427A", "about": "“Methods for targeting the vasculature of solid tumors” (Board of Regents, The University of Texas System, priority 1995, dated 1998)", "test_system": "Ia^d on colonic endothelium and epithelium", "experiment": "Ia^d expression and anti-Ia^d antibody localization in the gut of BALB/c nu/nu mice given oral tetracycline-HCl (indirect immunoperoxidase staining)", "format": "in vivo, mouse", "method": "BALB/c nu/nu mice were purchased from Simonsen (Gilroy, Calif.). SCID mice were from the UT Southwestern Medical Center breeding colony. All animals were maintained in microisolation units on sterilized food and water. Where indicated, tetracycline-HCI (Vedeo, St. Joseph, Mo.) was added to drinking water to a final concentration of 1.1 mg/ml (Harkness et al., 1983). Both strains carry the H-2^d haplotype.\nFor the establishment of solid tumors, a total of 2×10^7 C1300 or C1300 (Muγ) cells, or a mixture of the two, in 200 μl MEM-30% FCS were injected subcutaneously into the right anterior flank of BALB/c nu/nu or SCID mice. Tumor diameters were measured at regular intervals and the animals were euthanized after 16 days (rapidly-growing tumors) or 20 days (slowly-growing tumors). Tumors and normal tissues were excised immediately and snap-frozen over liquid nitrogen. Normal tissues were also harvested from non-tumor-bearing animals. Antibody localization studies were performed in animals bearing 1 cm subcutaneous tumors induced by injection of C1300 and C1300 (Muγ) in the ratio 7:3. One hundred micrograms of unconjugated M5/114 or CAMPATH-2 antibodies or 100 μg biotinylated 11-4.1 or WT-1 antibodies in 100 μl PBS were injected intravenously. At various times thereafter the animals were euthanized and their circulation was flushed with PBS for 5 minutes before removal and freezing of tumors and normal tissues as before. […] frozen sections were cut on a Tissuetek 2 cryostat (Baxter) and air-dried for 2 hours at room temperature. Slides were stored at -20° C. for up to 3 months before assay.\nIndirect immunoperoxidase staining for rat IgG was adapted from a method described by Billington et al. (1986). Sections were allowed to return to room temperature, air dried for 30 minutes and fixed in acetone for 15 minutes. After rehydration in PBS for 5 minutes, sections were incubated in a humidified chamber for 45-60 minutes with primary antibodies, diluted optimally in PBS-0.2% BSA, (PBS-BSA). […]", "note": "Entries after “also recorded” stand apart in the source; their conditions may differ. Where a name gives a salt, the structure may show the parent alone.", "data": [{"smiles": "CN(C)[C@@H]1C(O)=C(C(N)=O)C(=O)[C@@]2(O)C(O)=C3C(=O)c4c(O)cccc4[C@@](C)(O)[C@H]3C[C@@H]12", "note": "[tetracycline-Hcl, tetracycline-HCI]", "values": [{"measurement": "localization of intravenously-injected anti-Ia^d antibody to colonic endothelial cells", "setting": "oral administration before antibody injection", "value": "abolished localization"}, {"measurement": "Ia^d expression in the colon and elsewhere in the gut", "setting": "oral, 1-3 weeks", "value": "progressive diminution; also recorded: diminished Ia^d expression"}, {"measurement": "numbers of intravillous CD3-positive cells", "setting": "oral, 1-3 weeks", "value": "dramatic decrease"}]}]}
